These results are taken from US8143288B2, “Inhibitors of HCV replication” (priority 2005, dated 2012).

This experiment relates to HCV 1b-377-neo replicon cells. In words: HCV replicon FRET assay. It counts as cell-based. The following applies: Hepatitis C virus; HCV replicon; read-out: Activity (EC50). From the text: The HCV replicon cell line was isolated from colonies as described by Lohman, et. al. (Science 1999, 285, 110-113, expressly incorporated by reference in its entirety) and used for all experiments. The HCV replicon has the nucleic acid sequence set forth in EMBL Accession No.: AJ242652, the coding sequence of which is from nt 1801 to 7758.
The coding sequence of the published HCV replicon was synthesized by Operon Technologies, Inc. (Alameda, Calif.), and the fall-length replicon was then assembled in plasmid pGem9zf(+) (Promega, Madison, Wis.) using standard molecular biology techniques. The replicon consists of (i) the HCV 5′ UTR fused to the first 12 amino acids of the capsid protein, (ii) the neomycin phosphotransferase gene (neo), (iii) the IRES from encephalomyocarditis virus (EMCV), and (iv) HCV NS3 to NS5B genes and the HCV 3′ UTR. Plasmid DNAs were linearized with ScaI and RNA transcripts were synthesized in vitro using the T7 MegaScript transcription kit (Ambion, Austin, Tex.) according to manufacturer's directions.
To generate cell lines, 4×10^6 Huh-7 cells (kindly provided by R. Bartenschlager and available from Health Science Research Resources Bank, Japan Health Sciences Foundation) were electroporated (GenePulser System, Bio-Rad) with 10 micrograms(“μg”) of RNA transcript and plated into 100-mm dishes. After 24 hours, selective media containing 1.0 milligrams/milliliter (“mg/mL”) G418 was added and media was changed every 3 to 5 days. […] These cell lines were maintained at 37° C., 5% CO2, 100% relative humidity in DMEM (Cat#11965-084) Gibco-BRL, Rockville, Md., with 10% heat inactivated calf serum (Sigma), 10 mL of 100× penicillin/streptomycin (Cat#15140-122) Gibco-BRL, Rockville, Md., Geneticin (Cat#10131-027) Gibco-BRL, Rockville, Md. at 1 mg/mL. One of the cell lines (deposited as ATCC Accession No. PTA-4583 in the American Type Culture Collection) which had approximately 3,000 copies of HCV replicon RNA/cell was used for development of the assay (HCV 1b-377-neo replicon cells).
To perform the HCV FRET screening assay, 96-well cell culture plates were used. The FRET peptide (Anaspec, Inc., San Jose, Calif.) (Taliani et al., Anal. Biochem. 1996, 240, 60-67, hereby incorporated by reference in its entirety) contains a fluorescence donor, EDANS, near one end of the peptide and an acceptor, DABCYL, near the other end. The fluorescence of the peptide is quenched by […] resonance energy transfer (RET) between the donor and the acceptor, but as the NS3 protease cleaves the peptide the products are released from RET quenching and the fluorescence of the donor becomes apparent.
The assay reagent was made as follows: 5X luciferase cell culture lysis (Cat#E153A, Promega, Madison, Wis.) diluted to 1X with dH2O, NaCl added to […] final, the FRET peptide diluted to 20 micromolar (“μM”) final from a 2 mM stock. HCV 1b-377-neo replicon cells were trypsinized, placed into each well of a 96-well plate and allowed to attach overnight. The next day, the test compounds were added to columns 1 through 10; column 11 was media plus DMSO only, and column 12 contained a titration of interferon or an HCV specific inhibitor as a control (1000 units for A12, B12, 100 units for C12, D12, 10 units for E12, F12 and 1 unit for G12, H12). […] In addition, naïve Huh-7 cells could also be used to replace wells A12 and B12 as a background control.
At subsequent various times (typically 72 hours), 10% final volume Alamar blue (Cat#00-100, Trek Diagnostics, Cleveland, Ohio) was added to each well. The plates were returned to the incubator for 5 hours and then read in the Cytoflour (PE Biosystems) to determine Alamar blue conversion in each well as a measure of cellular toxicity.
(In general: A replicon is a self-replicating genome or part of one, used to study replication in cells.)
`O=C(Nc1ccc(/C=C/c2ccc(NC(=O)[C@@H]3C=CCN3C(=O)C3CCC3)cc2)cc1)[C@@H]1C=CCN1C(=O)C1CCC1` [Example 74]: the EC50 lay within 100 to 1000 nM. As to `O=C(Nc1ccc(/C=C/c2ccc(NC(=O)[C@@H]3CCCN3C(=O)COc3cccc(Cl)c3)cc2)cc1)[C@@H]1CCCN1C(=O)COc1cccc(Cl)c1` [Example 38], the half-maximal effective concentration (EC50) lay within 100 to 1000 nM. For `O=C(Nc1ccc(/C=C/c2ccc(NC(=O)[C@@H]3CCCN3C(=O)Cc3ccccc3)cc2)cc1)c1ccccc1OCc1ccccc1` [Example 268], the concentration for a half-maximal effect (EC50) lay within 1000 to 10000 nM. For `CSCC(=O)N1CCC[C@H]1C(=O)Nc1ccc(/C=C/c2ccc(NC(=O)[C@@H]3CCCN3C(=O)Cc3cccs3)cc2)cc1` [Example 99], the 50% effective concentration (EC50) was 0.1 to 90 nM. With `CCC(=O)N1CCC[C@H]1C(=O)Nc1ccc(/C=C/c2ccc(NC(=O)[C@@H]3CCCN3C(=O)c3cccnc3)cc2)cc1` [Example 90], the EC50 lay in the range of 0.1 to 90 nM. With `CCOc1ccccc1CC(=O)N1CCC[C@H]1C(=O)Nc1ccc(/C=C/c2ccc(NC(=O)[C@@H]3CCCN3C(=O)Cc3ccccc3OCC)cc2)cc1` [Example 173], the EC50 was 1000 to 10000 nM.

With `O=C(Nc1ccc(/C=C/c2ccc(NC(=O)[C@@H]3CCCN3C(=O)c3ncccc3-c3ccc(Cl)cc3)cc2)cc1)[C@@H]1CCCN1C(=O)c1ncccc1-c1ccc(Cl)cc1` [Example 230], the EC50 lay in the range of 100 to 1000 nM.

In the case of `CCCOc1cccnc1C(=O)N1CCC[C@H]1C(=O)Nc1ccc(/C=C/c2ccc(NC(=O)[C@@H]3CCCN3C(=O)c3ncccc3OCCC)cc2)cc1` [Example 159], the EC50 was 1000 to 10000 nM. For `Cc1cccc(-n2cnc(C(=O)N3CCC[C@H]3C(=O)Nc3ccc(/C=C/c4ccc(NC(=O)[C@@H]5CCCN5C(=O)c5cn(-c6cccc(C)n6)cn5)cc4)cc3)c2)n1` [Example 213], the EC50 fell in the range of 1000 to 10000 nM. In the case of `CC(C)C(=O)N1CCC[C@H]1C(=O)Nc1ccc(/C=C/c2ccc(NC(=O)[C@@H]3CCCN3C(=O)Cc3cccs3)cc2)cc1` [Example 102], the EC50 was in the range of 0.1 to 90 nM. As to `COCCOCC(=O)N1CCC[C@H]1C(=O)Nc1ccc(/C=C/c2ccc(NC(=O)[C@@H]3CCCN3C(=O)COCCOC)cc2)cc1` [Example 27], the EC50 was in the range of 100 to 1000 nM.

Turning to `CC(C)NC(=O)N1CCC[C@H]1C(=O)Nc1ccc(/C=C/c2ccc(NC(=O)[C@@H]3CCCN3C(=O)NC(C)C)cc2)cc1` [Example 285], the EC50 was in the range of 100 to 1000 nM. The figure for `CC(C)(C)OC(=O)n1cc(C(=O)N2CCC[C@H]2C(=O)Nc2ccc(/C=C/c3ccc(NC(=O)[C@@H]4CCCN4C(=O)c4cn(C(=O)OC(C)(C)C)c5ccccc45)cc3)cc2)c2ccccc21` [Example 208] is 1000 to 10000 nM; for `COC(=O)N1CCC[C@H]1C(=O)Nc1ccc(/C=C/c2ccc(NC(=O)[C@@H]3CCCN3C(=O)OC)cc2)cc1` [Example 52] it is 100 to 1000 nM. Turning to `CN(C)[C@H]1C[C@@H](C(=O)Nc2ccc(/C=C/c3ccc(NC(=O)[C@@H]4C[C@H](N(C)C)CN4C(=O)Cc4ccccc4)cc3)cc2)N(C(=O)Cc2ccccc2)C1` [Example 225], the concentration giving a half-maximal response (EC50) fell in the range of 0.1 to 90 nM. Regarding `COc1ccccc1C(=O)N1CCC[C@H]1C(=O)Nc1ccc(/C=C/c2ccc(NC(=O)[C@@H]3CCCN3C(=O)c3ccccc3OC)cc2)cc1` [Example 133], the EC50 fell in the range of 1000 to 10000 nM. For the compound `O=C(Nc1ccc(/C=C/c2ccc(NC(=O)[C@@H]3CCCN3C(=O)Cc3ccccc3Oc3ccccc3)cc2)cc1)[C@@H]1CCCN1C(=O)Cc1ccccc1Oc1ccccc1` [Example 168], the EC50 was in the range of 1000 to 10000 nM.

As to `O=C(Nc1ccc(/C=C/c2ccc(NC(=O)[C@@H]3CCCN3C(=O)C3Cc4ccccc43)cc2)cc1)[C@@H]1CCCN1C(=O)C1Cc2ccccc21` (some centres unmarked) [Example 116], the concentration giving a half-maximal response (EC50) was 1000 to 10000 nM. Under `O=C(Nc1ccc(/C=C/c2ccc(NC(=O)[C@@H]3CCCN3C(=O)c3ncoc3-c3ccccc3)cc2)cc1)[C@@H]1CCCN1C(=O)c1ncoc1-c1ccccc1` [Example 184] stands 100 to 1000 nM; under `Cc1nc2ccccn2c1C(=O)N1CCC[C@H]1C(=O)Nc1ccc(/C=C/c2ccc(NC(=O)[C@@H]3CCCN3C(=O)c3c(C)nc4ccccn34)cc2)cc1` [Example 187], 0.1 to 90 nM.

The term EC50 denotes the concentration giving half of the maximal effect.
